Active and inactive are the calls of the source.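 Rule for the calls: active = compounds whose mean EC50, the dose giving half the maximal reporter activation, is at or below a set limit; inactive = the rest.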

This assay addresses CHO-CHOP luciferase reporter, UPR activation, luminescence. The assay can be described thus: CHOP reporter induction, apoptotic UPR branch – CHO-CHOP cells, luciferase luminescence, confirmation (AID 489024).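 Note: compounds added alone to reporter cells with no tunicamycin stress co-treatment.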
For `C/C(=N\NC(=O)c1cccc2ccccc12)c1ccccn1`, the EC50 is 3.22 µM.
With `CCOC(=O)CSc1cccc2cccnc12` the figure was 11.4 µM.
With `COC(=O)Oc1ccc(/C=C/C(=O)OC(C)C)cc1OC(=O)OC` the figure was 14 µM; with `O=C(C=C=Nc1ccccc1)C(=O)N=C=Cc1ccccc1`, 5.75 µM; with `COc1ccc(C(=O)C(CN2CCCC2)c2ccccc2)cc1` (stereo unspecified), 13.9 µM.
In the case of `Cc1cc(C(=O)CCl)c(C)n1CCc1ccc(F)cc1` it was 7.77 µM.
For the compound `CCOC(=O)c1c(CSC(=N)N)n(-c2ccc(C)cc2)c2cc(Br)c(OC(C)=O)cc12`, the EC50 is > 80 µM (inactive).
With `COc1cc(SC#N)ccc1N=Cc1c(C)[nH]n(-c2ccc(C)c(C)c2)c1=O` the figure was 12.8 µM; with `O=C(Nc1nc(-c2ccc(F)c(F)c2)cs1)Nc1ccc(F)cc1F`, > 80 µM (inactive); with `Cc1ccc(C[n+]2c(-c3ccc(C)cc3)cc(-c3ccc(C)cc3)cc2-c2ccc(C)cc2)cc1`, 4.67 µM.
With `S=C(Nc1ccccn1)c1ccccn1` the figure was 10.4 µM; with `O=C(Nc1nc2c(F)cc(F)cc2s1)c1ccccn1`, 6.35 µM; with `COc1ccccc1C(=O)NC(=S)NNC(=O)c1sc2ccccc2c1Cl`, “inactive”.
With `CCCCCOc1ccc(N2C(=O)CC(N(O)c3ccccc3)C2=O)cc1` (stereo unspecified) the figure was 12.3 µM.
As for `Cc1ccc(C(C)C)c(OCc2ccc(C(=O)N/N=C/c3ccc(O)c(O)c3)cc2)c1`, the EC50 is > 80 µM (inactive).
In the case of `CC(C)c1cccc(-c2ccc3c(c2)S(=O)(=O)c2cccc(C(=O)NCc4ccccc4Cl)c2C3=O)c1` it was 4.51 µM; in that of `Oc1c(Cl)cc(CN2CCCCC2)c2cccnc12`, 15.2 µM; in that of `Cc1ccc(N2C(=O)NC(=O)/C(=C/c3cnn(-c4ccc(C)cc4)c3)C2=O)cc1`, 16.9 µM.
With `COc1ccc(/C=C/C(=O)c2ccc(C(=O)/C=C/c3ccc(OC)c(OC)c3)cc2)cc1OC` the figure was > 80 µM (inactive).
In the case of `Cc1cc(-n2c(C)cc(C(=O)CCl)c2C)no1` it was 7.75 µM; in that of `Cc1nn(Cc2c(Cl)cccc2Cl)c(C)c1NC(=O)c1sc2ccccc2c1Cl`, “inactive”.
Turning to `CC(=O)Oc1ccc(OC(C)=O)c(SCCCCCN2CCOCC2)c1`, the EC50 was 16.1 µM.
With `CCCCC(CC)CN=C(N)NC(N)=NCCCCCCN=C(N)NC(N)=NCC(CC)CCCC` (stereo unspecified) the figure was > 80 µM (inactive); with `Oc1ccc(/C=N/Nc2ncnc3c2ncn3Cc2ccccc2)cc1O`, 13.1 µM; with `Cc1cc(C)c2c(c1)/C(=c1/sc3n(c1=O)CN(c1ccccc1)CN=3)C(=O)N2`, 11.6 µM.
For the compound `C/C(=N\NC(=O)c1ccccc1OCc1ccc(F)cc1)c1ccccn1`, the EC50 was 4.89 µM.
In the case of `C[C@@H](NC(=O)c1coc(=O)c(Br)c1)c1ccccc1` it was 9.34 µM; in that of `Cc1ccc(Cc2cnc(NC(=O)/C(C#N)=C/c3ccc(-c4ccc([N+](=O)[O-])cc4)o3)s2)cc1`, “inactive”; in that of `N#Cc1cc([N+](=O)[O-])c(-n2nnc3ccccc32)c([N+](=O)[O-])c1`, 18.5 µM.
As for `Cc1ccc2[nH]cc(C(=O)CCl)c2c1`, the EC50 was 7.64 µM.
In the case of `COc1cc(/C=C/[N+](=O)[O-])ccc1O` it was > 80 µM (inactive); in that of `COc1ccc(/C=C/C(=O)c2ccc([N+](=O)[O-])o2)cc1`, 6.65 µM; in that of `Brc1ccccc1CN1CCN(Cc2c[nH]c3ccccc23)CC1`, 7.72 µM.
Consider `COc1ccc(-c2cc(C(F)(F)F)nc(S(C)(=O)=O)n2)cc1OC`, for which the EC50 is 9.31 µM.
With `O=c1[nH]c(=S)n(C2CC2)c(O)c1C=Nc1cccc(C(F)(F)F)c1` the figure was > 80 µM (inactive); with `O=[N+]([O-])c1ccc(C=Nc2ccc(Cl)cc2Cl)s1`, 13.9 µM.
With `CC(C)(C)C(=O)OCc1nc(-c2ccc(O)c(O)c2)cs1` the figure was 1.38 µM.
With `Cc1ccc(-c2nc(SCC(=O)Nc3cc(C)on3)c3c(=O)n(C)c(=O)n(C)c3n2)cc1` the figure was > 80 µM (inactive); with `Cc1ccccc1/C=C/C(=O)c1ccc([N+](=O)[O-])o1`, 9.86 µM.
As to `CC1=CC(C)(C)Nc2ccc(OC(=O)CN3C(=O)CCC3=O)cc21`, the EC50 was 9.58 µM.
With `S=C(Nc1ccccc1)Nc1nccs1` the figure was 17.5 µM; with `O=C(NC1CCCC1)C(c1ccc(F)cc1)N(Cc1ccc(Cl)cc1)C(=O)CCl` (stereo unspecified), 7.8 µM; with `O=C(CCl)Nc1cccc(CP(=O)(c2ccccc2)c2ccccc2)c1`, > 80 µM (inactive).
With `Cc1c(C#N)c(NC(=O)CCl)n(Cc2ccc(F)cc2)c1C` the figure was 16 µM; with `COc1cccc(N=Nc2ccc(O)c3ncccc23)c1`, 12.7 µM.
With `COc1ccc(-n2c(C)cc(C(=O)CCl)c2C)cc1` the figure was 7.13 µM; with `CCOC(=O)C1=C(CCl)NC(=O)NC1c1ccc2c(c1)OCO2` (stereo unspecified), > 80 µM (inactive).
Turning to `Cc1ccn2cc(-c3ccc(O)c(O)c3)nc2c1`, the EC50 was 5.31 µM.
With `Cc1ccc(/C=C/C(=O)c2ccc([N+](=O)[O-])o2)cc1` the figure was 6.46 µM.
With `CCCCCCCCCCn1c2c(c(=N)c3c1CCC3)CCC2` the figure was 14.1 µM.
`Cc1ccc(-c2nnc(-c3ccc(NC(=O)c4cccs4)cc3)o2)cc1`: the EC50 was 16 µM.
In the case of `CC(=O)c1ccc(NC(=O)COC(=O)c2ccccc2N=Nc2ccc(N(C)C)cc2)cc1` it was > 80 µM (inactive).
In the case of `Cc1ccc(CS(=O)(=O)c2ncc(Cl)c(C(=O)Nc3ccc(OC(F)F)cc3)n2)cc1` it was > 80 µM (inactive); in that of `CC1CCC/C=C/C(=O)c2c(O)cc(O)cc2CC(=O)O1` (stereo unspecified), > 80 µM (inactive); in that of `O=C(COC(=O)c1ccccc1C(=O)c1ccc(Cl)c([N+](=O)[O-])c1)NC1CCCCCC1`, > 80 µM (inactive).
In the case of `CC1=NN(c2cccc(C(=O)O)c2)C(=O)/C1=C\C=C/c1ccccc1` it was 11.7 µM; in that of `C=CCSC(=C(C#N)C#N)c1cc2c([nH]1)CCCC2`, > 80 µM (inactive); in that of `Oc1[nH]c2ccccc2c1N=NC(=S)N1CCOCC1`, 7.74 µM.
In the case of `O=C(NC1CCCC1)C(c1ccc(Cl)cc1)N(Cc1ccc(F)cc1)C(=O)CCl` (stereo unspecified), the EC50 was 8.34 µM.
With `O=C(N/N=C/c1cccc([N+](=O)[O-])c1)c1cc2c(ccc3ccccc32)o1` the figure was > 80 µM (inactive); with `O=C(Nc1nc2ccc(F)cc2s1)c1ccccn1`, 7.16 µM; with `Cc1cccc(C)c1NC(=O)C(Cl)C(=O)c1ccccc1` (stereo unspecified), 19.3 µM.
Consider `Cc1ccc(Sc2c([N+](=O)[O-])c(=O)n(C)c3ccccc23)cc1`, for which the EC50 is > 80 µM (inactive).
With `O=[N+]([O-])c1ccc2nc(Cl)nc(-c3ccccc3)c2c1` the figure was 12.5 µM; with `O=C(/C=C/Sc1ccccc1)c1ccccc1`, 6.98 µM; with `O=C(NCc1ccccc1Br)c1cccc2c1C(=O)c1ccc(-c3ccc(OC(F)(F)F)cc3)cc1S2(=O)=O`, 12.7 µM.
In the case of `COc1ccc(-c2cc(=O)oc3c(C)c(OC(=O)c4cccs4)ccc23)cc1` it was “inactive”; in that of `CCOc1cc(/C=N/NC(N)=S)cc(Br)c1OCc1ccccc1C`, “inactive”.
With `CC(C)c1ccc(NC(=O)/C(C#N)=C/c2ccncc2)cc1` the figure was 13.6 µM; with `CCOC(=O)/C(=C\c1ccccc1)C(=O)c1cc(C(C)=O)c(Nc2ccccc2)s1`, 6.37 µM.
Regarding `Cc1c(C#N)c(NC(=O)CCl)n(Cc2ccccc2)c1C`, the EC50 was 14.4 µM.
In the case of `Oc1ccc(/C=N/N2CCCCC2)cc1O` it was “inactive”.
In the case of `Cc1ccc(C(=O)/C=C/C(=O)c2ccc(C)cc2)cc1` it was 8.35 µM; in that of `Oc1ccc(/C=N/Nc2ccnc3cc(Cl)ccc23)cc1O`, 6.62 µM; in that of `CC[C@@H](C)[C@H](NC(=O)OC(C)(C)C)c1nnc(S(=O)(=O)Cc2cc(C)ccc2C)o1`, 15.5 µM.
On to `Oc1ccc(CN2CCN(c3ccccc3)CC2)c2cccnc12`, for which the EC50 entry was “inactive”.
Turning to `COc1ccc(OC)c(Nc2nc(-c3ccc(O)c(O)c3)cs2)c1`, the EC50 is 1.55 µM.
In the case of `Oc1ccc(/C=N/N(c2ccccc2)c2ccccc2)cc1O` it was “inactive”.
In the case of `CCOC(=O)c1sc(NC(=S)NC(=O)c2ccccc2)c(C(=O)OCC)c1C` it was > 80 µM (inactive); in that of `CCc1cccc2sc(N3CCN(C(=O)c4ccc([N+](=O)[O-])o4)CC3)nc12`, 10.5 µM; in that of `Cc1cc(N2CCN(c3ccc([N+](=O)[O-])c4cccnc34)CC2)c2ccccc2n1`, “inactive”.
In the case of `Cn1c(SCC(=O)NCC2CCCO2)ncc(C(=O)Nc2ccc(Cl)cc2)c1=O` (stereo unspecified) it was 16 µM; in that of `O=[N+]([O-])c1ccc(Sc2nnnn2-c2ccccc2)nc1`, > 80 µM (inactive).
With `C/C(CC(C)(C)C1CCCCC1)=N\NC(N)=S`, the EC50 is 12 µM.
On to `Cc1ccc(/C=C2\CCC3=C2OC(N)=C(C#N)C3c2ccc(C)cc2)cc1` (stereo unspecified), for which the EC50 is 4.55 µM.
As to `O=Cc1ccc(O)c2ncccc12`, the EC50 is 10.3 µM.
With `CC(C)(C)C(=O)NC(=S)NNC(=O)c1ccc(-c2ccccc2)cc1` the figure was 12.9 µM.
In the case of `CCc1cc2c(=O)c(-c3cnn(-c4ccccc4)c3)c(C)oc2cc1OCC(=O)Nc1cccc(C)c1` it was 15.1 µM; in that of `CCc1nnc(NC(=O)c2nc(S(=O)(=O)Cc3ccc(C)cc3)ncc2Cl)s1`, > 80 µM (inactive).
Take `Cn1cc(/C=C2\SC(=O)NC2=S)c2ccccc21`: the EC50 was > 80 µM (inactive).
On to `Cc1cc(C)c(C(CC(=O)c2cccs2)C(C#N)C#N)c(C)c1` (stereo unspecified), for which the EC50 was 14.2 µM.
In the case of `CN(/N=C\c1ccc(O)c(O)c1)c1nc(-c2ccccc2)cc(-c2ccccc2)n1` it was 1.32 µM; in that of `O=C(N/N=C(\c1ccccc1)c1ccccn1)c1cccc([N+](=O)[O-])c1`, 7.44 µM.
As to `O=C(COc1ccc(/C=N/NC(=O)c2cc3ccccc3o2)cc1Br)Nc1ccccc1`, the EC50 was 3.83 µM.
With `CC(=O)N(\C=C/C=C/C=C1\Sc2ccccc2C1=O)c1ccccc1` the figure was > 80 µM (inactive).
With `COc1ccc(C(=O)Sc2ccc(Cl)cc2)cc1OC` the figure was 9.38 µM.
